In BindingDB's records for patent US20230295182 (Idorsia Pharmaceuticals, 2023):

Molecular target: Galectin-3 (Homo sapiens, UniProt P17931)
Assay: Evaluation of Compound Inhibitory Activity (IC50)
Procedure: Briefly, compounds are serially diluted in DMSO (working dilutions). ASF-coated 384 well plates are supplemented with 22.8 uL/well of biotinylated hGal-3 or hGal-1 in assay buffer (i.e. 300-1000 ng/mL biotinylated hGal-3 or hGal-1) to which 1.2 uL of compound working dilutions are added and mixed. Plates are incubated for 3 hours at 4 C., then washed with cold assay buffer (3x50 uL), incubated for 1 hour with 25 uL/well of a streptavidin-peroxidase solution (diluted in assay buffer to 80 ng/mL) at 4 C., followed by further washing steps with assay buffer (3x50 uL). Finally, 25 µL/well of ABTS substrate is added.

Chain of Galectin-3 (P17931 whole entry): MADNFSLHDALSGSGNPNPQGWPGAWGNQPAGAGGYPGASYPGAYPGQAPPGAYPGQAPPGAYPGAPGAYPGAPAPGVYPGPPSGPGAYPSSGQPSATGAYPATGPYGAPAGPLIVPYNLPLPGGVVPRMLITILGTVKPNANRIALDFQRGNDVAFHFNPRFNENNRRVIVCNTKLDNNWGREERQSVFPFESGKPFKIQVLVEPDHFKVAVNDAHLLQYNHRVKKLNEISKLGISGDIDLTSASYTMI

| Compound | IC50 |
| --- | --- |
| CO[C@@H]1[C@@H](n2cc(-c3cc(F)c(F)c(F)c3)nn2)[C@@H](O)[C@@H](CO)O[C@@H]1CC1=NOC2(CCC(C)CC2)C1 (stereo partly drawn) [US20230295182, Example 1.30] | 500 nM |
| OC[C@H]1O[C@H](CC2=NOC3(CCCCC3)C2)[C@H](OCC(F)F)[C@@H](n2cc(-c3cc(F)c(F)c(F)c3)nn2)[C@H]1O [US20230295182, Example 1.67] | 230 nM |
| CO[C@@H]1[C@@H](n2cc(-c3ccc(C)c(F)c3F)nn2)[C@@H](O)[C@@H](CO)O[C@@H]1CN1CC2(CCCCC2)NC1=O [US20230295182, Example 4.01] | 46 nM |
